Laboratory results published in patent US7265120B2, “Pyrazine derivatives and pharmaceutical use thereof” (Astellas Pharma Inc., priority 2004, dated 2007).

How the values were obtained:
human A1 receptor = target: T1, human A1 receptor (Homo sapiens, UniProt P30542); assay: Adenosine antagonistic activity, radioligand binding ([3H]DPCPX); conditions: [3H]DPCPX 4.5 nM
T1 sequence (P30542 1-326): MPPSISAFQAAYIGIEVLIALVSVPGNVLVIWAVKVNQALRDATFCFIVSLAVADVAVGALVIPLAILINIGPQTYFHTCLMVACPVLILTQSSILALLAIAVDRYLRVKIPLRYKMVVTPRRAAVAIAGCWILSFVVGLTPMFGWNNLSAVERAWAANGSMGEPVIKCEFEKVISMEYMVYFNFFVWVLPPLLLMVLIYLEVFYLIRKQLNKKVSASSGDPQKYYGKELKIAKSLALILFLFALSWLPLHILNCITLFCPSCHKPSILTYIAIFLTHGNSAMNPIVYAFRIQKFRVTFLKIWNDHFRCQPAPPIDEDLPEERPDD
Method: (§1) Test 1: Adenosine Antagonistic Activity
(§2) The adenosine antagonistic activity [Ki (nM)] of the test compound was examined by radioligand binding techniques using 8-cyclopentyl-1,3-dipropylxanthine, [dipropyl-2,3-^3H(N)] ([^3H]DPCPX, 4.5 nM) for human A1 receptor and [^3H]CGS 21680 (20 nM) for human A2a receptor.

human A2a receptor = human A2a receptor (Homo sapiens, UniProt P29274); assay: Adenosine antagonistic activity, radioligand binding ([3H]CGS 21680); conditions: [3H]CGS 21680 20 nM
human A2a receptor, sequence (P29274 whole entry): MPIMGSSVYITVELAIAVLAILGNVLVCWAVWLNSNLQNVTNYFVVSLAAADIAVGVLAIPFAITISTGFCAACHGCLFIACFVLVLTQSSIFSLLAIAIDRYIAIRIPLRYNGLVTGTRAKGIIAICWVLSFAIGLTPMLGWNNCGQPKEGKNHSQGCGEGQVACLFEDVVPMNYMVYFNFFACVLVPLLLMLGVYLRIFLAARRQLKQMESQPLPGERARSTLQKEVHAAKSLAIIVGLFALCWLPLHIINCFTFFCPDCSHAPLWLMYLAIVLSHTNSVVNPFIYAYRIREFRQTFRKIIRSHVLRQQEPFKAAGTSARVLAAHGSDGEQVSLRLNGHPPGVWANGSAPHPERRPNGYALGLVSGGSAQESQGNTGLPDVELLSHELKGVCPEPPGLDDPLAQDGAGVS
Method: as §1, §2

ddY mice = assay: Anticatalepsy activity in mouse (haloperidol-induced catalepsy, bar test); assay type: in vivo; conditions: 3.2 mg/kg orally, ddY mice n=7; haloperidol 0.32 mg/kg i.p. 30 min after compound; measured 30 min after injection, up to 30 sec
Method: Test 2: Anticatalepsy Activity in Mouse [I] Test Method
The test compound (3.2 mg/kg) was administered orally with ddY mice (n=7). Then, haloperidol (0.32 mg/kg) was injected intraperitoneally 30 min. after the administration of the compound. Thirty min. after the injection, the cataleptic responses of mice were measured. The forelimbs of each mouse were placed on a 3 cm high, 3 mm wide horizontal bar, and the duration of cataleptic posture was measured for up to 30 sec.

Compound	Ki (human A1 receptor) [nM]	Ki (human A2a receptor) [nM]	melting point	Manifestation rate of Catalepsy (number of mouse) (ddY mice)
Cn1nc(-c2nc(C#N)c(N)nc2-c2ccccc2)ccc1=O [Example 17, 3-Amino-6-(1-methyl-6-oxo-1,6-dihydro-3-pyridazinyl)-5-phenyl-2-pyrazinecarbonitrile]	11.2	1.72	> 250 °C	0/7
CC(C)n1nc(-c2nc(C#Cc3cncn3C)c(N)nc2-c2ccccc2)ccc1=O [Example 75, 6-{5-amino-6-[(1-methyl-1H-imidazol-5-yl)ethynyl]-3-phenyl-2-pyrazinyl}-2-isopropyl-3(2H)-pyridazinone]	0.72	0.25	> 250 °C	0/7
Cn1nc(-c2nc(-n3cccn3)c(N)nc2-c2ccccc2)ccc1=O [Example 153, 6-[5-amino-3-phenyl-6-(1H-pyrazol-1-yl)-2-pyrazinyl]-2-methyl-3(2H)-pyridazinone]	18.9	4.95	187 to 189.5 °C	2/7
CCCCOc1nc(-c2ccc(=O)n(C)n2)c(-c2ccccc2)nc1N [Example 179, 6-(5-amino-6-butoxy-3-phenyl-2-pyrazinyl)-2-methyl-3(2H)-pyridazinone]	16.4	1.57	143 to 144 °C	1/7
Cn1nc(-c2nc(OCc3ccco3)c(N)nc2-c2ccccc2)ccc1=O [Example 184, 6-[5-amino-6-(2-furylmethoxy)-3-phenyl-2-pyrazinyl]-2-methyl-3(2H)-pyridazinone]	13.2	1.49	158 to 159.5 °C	2/7
Cn1nc(-c2nc(OCCc3ccccc3)c(N)nc2-c2ccccc2)ccc1=O [Example 187, 6-[5-amino-3-phenyl-6-(2-phenylethoxy)-2-pyrazinyl]-2-methyl-3(2H)-pyridazinone]			156 to 159 °C	
CC(C)n1nc(-c2nc(C#N)c(N)nc2-c2ccccc2Br)ccc1=O [Example 188, 3-amino-5-(2-bromophenyl)-6-(1-isopropyl-6-oxo-1,6-dihydro-3-pyridazinyl)-2-pyrazinecarbonitrile]			240 to 243 °C	
CC(C)n1nc(-c2nc(C#N)c(N=CN(C)C)nc2-c2ccccc2Br)ccc1=O [Example 188, N′-[6-(2-bromophenyl)-3-cyano-5-(1-isopropyl-6-oxo-1,6-dihydro-3-pyridazinyl)-2-pyrazinyl]-N,N-dimethylimidoformamide]			197 to 199 °C	
CC(C)n1nc(-c2nc(C(N)=O)c(N)nc2-c2ccccc2Br)ccc1=O [Example 190, 3-amino-5-(2-bromophenyl)-6-(1-isopropyl-6-oxo-1,6-dihydro-3-pyridazinyl)-2-pyrazinecarboxamide]			132 to 135 °C	
CC(C)n1nc(-c2nc(C(N)=O)c(N)nc2-c2cccs2)ccc1=O [Example 191, 3-amino-6-(1-isopropyl-6-oxo-1,6-dihydro-3-pyridazinyl)-5-(2-thienyl)-2-pyrazinecarboxamide]			238 to 240 °C	
CC(C)n1nc(-c2nc(C(N)=O)c(N)nc2-c2ccccc2Br)ccc1=O [Example 192, 3-amino-5-(2-bromophenyl)-6-(1-isopropyl-6-oxo-1,6-dihydro-3-pyridazinyl)-2-pyrazinecarboxamide]			240 to 243 °C	
CC(C)n1nc(-c2nc(C#N)c(C#N)nc2-c2ccccc2Br)ccc1=O [Example 195, 5-(2-bromophenyl)-6-(1-isopropyl-6-oxo-1,6-dihydro-3-pyridazinyl)-2,3-pyrazinedicarbonitrile]			159.5 to 161 °C	
COc1ccc(CNc2nc(-c3ccccc3Br)c(-c3ccc(=O)n(C(C)C)n3)nc2C#N)cc1 [Example 196, 5-(2-bromophenyl)-6-(1-isopropyl-6-oxo-1,6-dihydro-3-pyridazinyl)-3-[(4-methoxybenzyl)amino]-2-pyrazinecarbonitrile]			76 to 78 °C	
CC(C)n1nc(-c2nc(C(=O)O)c(N)nc2-c2ccccc2Br)ccc1=O [Example 198, 3-amino-5-(2-bromophenyl)-6-(1-isopropyl-6-oxo-1,6-dihydro-3-pyridazinyl)-2-pyrazinecarboxylic acid]			237 °C (dec.)	

More lines, main results first:

Ki (human A1 receptor) [nM]	Ki (human A2a receptor) [nM]	melting point	Compound	Manifestation rate of Catalepsy (number of mouse) (ddY mice)
23	6.89		CC(C)n1nc(-c2ncc(N)nc2-c2ccc(F)cc2)ccc1=O [Example 36, 6-[5-Amino-3-(4-fluorophenyl)-2-pyrazinyl]-2-isopropyl-3(2H)-pyridazinone]	0/7
15.9	2.65		CC(C)n1nc(-c2nc(Cl)c(N)nc2-c2ccc(F)cc2)ccc1=O [Example 37, 6-[5-Amino-6-chloro-3-(4-fluorophenyl)-2-pyrazinyl]-2-isopropyl-3(2H)-pyridazinone]	0/7
16	6.79	220 to 224 °C	CC(C)n1nc(-c2nc(Br)c(N=S(C)C)nc2-c2ccccc2)ccc1=O [Example 66, 6-{6-bromo-5-[(dimethyl-lambda˜4˜-sulfanylidene)amino]-3-phenyl-2-pyrazinyl}-2-isopropyl-3(2H)-pyridazinone]	1/7
0.88	0.29	239 to 241 °C	CC(C)n1nc(-c2nc(C#Cc3ccccc3)c(N)nc2-c2ccccc2)ccc1=O [Example 70, 6-[5-amino-3-phenyl-6-(phenylethynyl)-2-pyrazinyl]-2-isopropyl-3(2H)-pyridazinone]	0/7
6.66	2.6	206.5 to 209 °C	CC(C)n1nc(-c2nc(NCc3ccco3)c(N)nc2-c2ccccc2)ccc1=O [Example 134, 6-{5-amino-6-[(2-furylmethyl)amino]-3-phenyl-2-pyrazinyl}-2-isopropyl-3(2H)-pyridazinone]	1/7
1.35	0.42	150 to 151 °C	CC(C)n1nc(-c2nc(OCc3ccccn3)c(N)nc2-c2ccccc2)ccc1=O [Example 163, 6-[5-amino-3-phenyl-6-(2-pyridylmethoxy)-2-pyrazinyl]-2-isopropyl-3(2H)-pyridazinone]	2/7
		250 to 252 °C	COc1ccc(-c2nc(N)c(C(N)=O)nc2-c2ccc(=O)n(C(C)C)n2)cn1 [Example 194, 3-amino-6-(1-isopropyl-6-oxo-1,6-dihydro-3-pyridazinyl)-5-(6-methoxy-3-pyridyl)-2-pyrazinecarboxamide]	
		241 to 243 °C	CC(C)n1nc(-c2nc(N)c(C#N)nc2-c2ccccc2Br)ccc1=O [Example 197, 3-amino-6-(2-bromophenyl)-5-(1-isopropyl-6-oxo-1,6-dihydro-3-pyridazinyl)-2-pyrazinecarbonitrile]	
		189 to 191 °C	CC(C)n1nc(-c2ncc(N)nc2-c2ccccc2Br)ccc1=O [Example 199, 6-[5-amino-3-(2-bromophenyl)-2-pyrazinyl]-2-isopropyl-3(2H)-pyridazinone]	
